Data from patent US20080262019A1, “Optical Isomers of (+) and (-)-Trans-2,3,4,4A,5,9B-Hexahydro-2,8-Dimethyl-1H-Pyrido[4,3-B] Indole” (priority 2005, published 2008).
Entries after “also recorded” stand apart in the source; their conditions may differ. Marks after values point to notes of the source that are not given here.

Test system: male C57BL/6 mice
Experiment: spontaneous orientation (patroling behavior) test in the closed cross maze
Assay type: in vivo
Conditions: for F_PtrN, duration of the first patroling cycle (number of arm visits), M / L_TrnN, number of left turns, M / PatrlN, number of patrolling cycles, M / R_TrnN, number of right turns, M / S_PtrN, duration of the second patrolling cycle (number of arm visits), M / S_VisN, spontaneous stereotype behavior, M / T_GlTm, total time spent in the side arms of the maze, M / rl_Ind, asymmetry index of turns, M / F_ChTm, latency of the first arm visit, M / F_GlTm, length of the first arm visit, M / T_ChTm, total time spent in the central compartment of the maze, M / F_PasN, M: 1 hour after treatment; for nootropic effect (decrease in F_PtrN and S_PtrN, increase in PatrlN): single administration into stomach
Protocol: Preclinical evaluation of nootropic and sedative activity of the compounds was performed in mice using spontaneous orientation (patroling behavior) test in the cross maze, that allows simultaneous evaluation of nootropic, tranquilizing, sedative and psychostimulating effects of the compounds.
For evaluation of the exploratory behavior of the animals the closed cross maze test was used (Salimov R. M., Evaluation of the ordering of the way in the process of exploratory behavior in mice. Journal of the Higher Nervous Activity, 1988, v. 38, #3, pp. 569-571).
The mouse was placed in the central compartment of the maze and the sequence of its visits in different compartments was recorded semi-automatically.
Test was completed after 12 visits (Salimov R. M., Evaluation of the ordering of the way in the process of exploratory behavior in mice. Journal of the Higher Nervous Activity, 1988, v.38, #3, pp. 569-571; Salimov R. M., McBride W. J., Sinclair J. D., Lumeng L., Li T. -K. Performance in the cross-maze and slip funnel tests of four pairs of rat lines selectively bred for divergent alcohol drinking behavior. Addict. Biol. 1996a, 1:273-280; Salimov, R. M., McBride, W. J., McKenzie, D. L., Lumeng, L. and Li, T. -K. Ethanol consumption by adolescent alcohol-preferring P rats on subsequent behavioural performance in the cross-maze and slip funnel tests. Alcohol. 1996b, 13: c. 297-300).
Subsequent computerized analysis of the record singled out a number of behavioral characteristics. The most informative among them were:
1) The total time spent by the animal in the central compartment of the maze—T_ChTm, and the total time spent by the animal in the side arms of the maze—T_GlTm.
These variables reflect the level of the motor activity of the animal and also reflect the intensity of their exploratory drive for the new environment. […] Alcohol 20:61-68; 2000; Markina N. V., Salimov R. M., Poletaeva I. I. Exploratory behaviour of F2 crosses of mouse lines having selected for different brain weight: A multivariate analysis. Prog. Neuro-Psychopharmacol. Biol. Psychiat. 2004, 28(3):583-589).
2) The latency (variable F_ChTm) and the length of the first arm visit (F_GlTm).
These variables reflect the level of anxiety of the animal in the new environment and can be used for the evaluation of the tranquilizing (anxiolythic) effect of the drug (Salimov, R. M. Different behavioral patterns related to alcohol use in rodents: A factor analysis. Alcohol. 1999, 17:157-162).
3) The duration of the first patroling cycle—variable F_PtrN, and the duration of the second patrolling cycle—variable S_PtrN.
These variables are measured by the number of the animal's visits in the maze arms, performed by the animal for the exploration of the environment before it visits all 4 arms at least once (Salimov R. M., Evaluation of the ordering of the way in the process of exploratory behavior in mice. Journal of the Higher Nervous Activity, 1988, v.38, #3, pp. 569-571; Salimov R. M., McBride W. J., Sinclair J. D., Lumeng L., Li T. -K. Performance in the cross-maze and slip funnel tests of four pairs of rat lines selectively bred for divergent alcohol drinking behavior.
4) The number of patrolling cycles—variable PatriN, executed during the time of the experiment, as one of the characteristics of the efficiency of exploratory behavior. The more patroling cycles were accomplished, the more “systematic” and efficient was the exploration of the maze.
Variables from groups 3 and 4 can be used for the evaluation of the nootropic activity of the drugs.
5) The number of right turns—variable R_TrnN, and the number of left turns—variable L_TrN, executed by the animals moving from one arm of the maze to the other, as well as asymmetry index—variable rl_Ind—of these turns:
rl_Ind ═R_TrnN*(R_TrnN+L_TrnN)^−1
6) The spontaneous stereotype behavior—variable S_VisN, that characterizes animal's visiting two arms of the maze in turn more than two times in a row. […]

[1] = 2.5 mg/kg, single dose into stomach, N = 12
[2] = 2.5 mg/kg, single dose into stomach, N = 12, in s (unit assumed)
[3] = 5.0 mg/kg, single dose into stomach, N = 12
[4] = 5.0 mg/kg, single dose into stomach, N = 12, in s (unit assumed)
[5] = single administration, 2.5 and 5.0 mg/kg doses
[6] = 1 mg/kg, single dose, N = 15, in s (unit assumed)
[7] = single administration 0.5 mg/kg
[8] = 100 mg/kg, single dose into stomach, N = 15
[9] = 100 mg/kg, single dose into stomach, N = 15, in s (unit assumed)
[10] = 300 mg/kg, single dose into stomach, N = 15
[11] = 300 mg/kg, single dose into stomach, N = 15, in s (unit assumed)

SMILES: Cc1ccc2c(c1)[C@H]1CN(C)CC[C@@H]1N2 [Trans-(+)-isomer, (+)-trans-2,8-dimethyl-2,3,4,4a,5,9b-hexahydro-1H-pyrido[4,3-b]indole]
- F_PtrN, duration of the first patroling cycle (number of arm visits), M [1]: 5.75
- L_TrnN, number of left turns, M [1]: 4.17
- PatrlN, number of patrolling cycles, M [1]: 2.00
- R_TrnN, number of right turns, M [1]: 2.67
- S_PtrN, duration of the second patrolling cycle (number of arm visits), M [1]: 4.55*^+
- S_VisN, spontaneous stereotype behavior, M [1]: 5.75
- T_GlTm, total time spent in the side arms of the maze, M [1]: 271.98*^+
- rl_Ind, asymmetry index of turns, M [1]: 0.39
- F_ChTm, latency of the first arm visit, M [2]: 9.18
- F_GlTm, length of the first arm visit, M [2]: 22.91
- T_ChTm, total time spent in the central compartment of the maze, M [2]: 53.27*
- F_PtrN, duration of the first patroling cycle (number of arm visits), M [3]: 6.30
- L_TrnN, number of left turns, M [3]: 4.82
- PatrlN, number of patrolling cycles, M [3]: 1.64
- R_TrnN, number of right turns, M [3]: 3.09
- S_PtrN, duration of the second patrolling cycle (number of arm visits), M [3]: 5.43^+
- S_VisN, spontaneous stereotype behavior, M [3]: 5.55
- T_GlTm, total time spent in the side arms of the maze, M [3]: 391.25*^+
- rl_Ind, asymmetry index of turns, M [3]: 0.38
- F_ChTm, latency of the first arm visit, M [4]: 24.60*
- F_GlTm, length of the first arm visit, M [4]: 43.48*
- T_ChTm, total time spent in the central compartment of the maze, M [4]: 58.27*
- sedative effect compared with the other optic isomer ((+)- versus (−)-trans isomer, 2.5 and 5.0 mg/kg): higher sedative effect
- nootropic effect (improvement in the patrolling behavior, decrease in S_PtrN) [5]: nootropic effect
- sedative effect (reduction in the speed of movement in the maze; increase in T_ChTm and T_GlTm) [5]: sedative effect
- spontaneous stereotype behavior (variable S_VisN), change [5]: did not demonstrate this ability

SMILES: O=C(CCCN1CCC(O)(c2ccc(Cl)cc2)CC1)c1ccc(F)cc1 [Haloperidol, reference compound]
- F_PtrN, duration of the first patroling cycle (number of arm visits), M (1 mg/kg, single dose, N = 15): 6.09
- L_TrnN, number of left turns, M (1 mg/kg, single dose, N = 15): 3.36
- PatrlN, number of patrolling cycles, M (1 mg/kg, single dose, N = 15): 1.91
- R_TrnN, number of right turns, M (1 mg/kg, single dose, N = 15): 3.91
- S_PtrN, duration of the second patrolling cycle (number of arm visits), M (1 mg/kg, single dose, N = 15): 5.20
- S_VisN, spontaneous stereotype behavior, M (1 mg/kg, single dose, N = 15): 2.35*
- rl_Ind, asymmetry index of turns, M (1 mg/kg, single dose, N = 15): 0.54
- F_ChTm, latency of the first arm visit, M [6]: 19.30*
- F_GlTm, length of the first arm visit, M [6]: 31.85*
- T_ChTm, total time spent in the central compartment of the maze, M [6]: 100.65*
- T_GlTm, total time spent in the side arms of the maze, M [6]: 284.67*
- sedative effect (reduction in the speed of movement in the maze; increase in T_ChTm and T_GlTm) [7]: sedative effect
- spontaneous stereotype behavior (variable S_VisN), change [7]: decrease

SMILES: CN(C)CCOC(=O)COc1ccc(Cl)cc1 [Meclofenaxate, reference compound]
- F_PasN, M [8]: 3.6
- F_PtrN, duration of the first patroling cycle (number of arm visits), M [8]: 4.8*
- L_TrnN, number of left turns, M [8]: 4.5
- PatrlN, number of patrolling cycles, M [8]: 2.5*
- R_TrnN, number of right turns, M [8]: 3.8
- S_PtrN, duration of the second patrolling cycle (number of arm visits), M [8]: 4.6*
- S_VisN, spontaneous stereotype behavior, M [8]: 3.7
- rl_Ind, asymmetry index of turns, M [8]: 0.4
- F_ChTm, latency of the first arm visit, M [9]: 15.4
- F_GlTm, length of the first arm visit, M [9]: 29.1
- T_ChTm, total time spent in the central compartment of the maze, M [9]: 40.5
- T_GlTm, total time spent in the side arms of the maze, M [9]: 145.4
- nootropic effect (decrease in F_PtrN and S_PtrN, increase in PatrlN) (100 mg/kg): nootropic effect

SMILES: NC(=O)CN1CCCC1=O [Piracetam, reference compound]
- F_PasN, M [10]: 4.1
- F_PtrN, duration of the first patroling cycle (number of arm visits), M [10]: 4.5*
- L_TrnN, number of left turns, M [10]: 4.5*
- PatrlN, number of patrolling cycles, M [10]: 2.1
- R_TrnN, number of right turns, M [10]: 3.4*
- S_PtrN, duration of the second patrolling cycle (number of arm visits), M [10]: 5.4
- S_VisN, spontaneous stereotype behavior, M [10]: 4.3*
- rl_Ind, asymmetry index of turns, M [10]: 0.4*
- F_ChTm, latency of the first arm visit, M [11]: 11.6
- F_GlTm, length of the first arm visit, M [11]: 25.0
- T_ChTm, total time spent in the central compartment of the maze, M [11]: 46.1
- T_GlTm, total time spent in the side arms of the maze, M [11]: 135.1
- nootropic effect (decrease in F_PtrN and S_PtrN, increase in PatrlN) (300 mg/kg): nootropic effect

SMILES: Cc1ccc2c(c1)[C@@H]1CN(C)CC[C@H]1N2 [Trans-(−)-isomer, (−)-trans-2,3,4,4a,5,9b-hexahydro-2,8-dimethyl-1H-pyrido[4,3-b]indole]
- F_PtrN, duration of the first patroling cycle (number of arm visits), M [1]: 6.10
- L_TrnN, number of left turns, M [1]: 3.00
- PatrlN, number of patrolling cycles, M [1]: 1.67
- R_TrnN, number of right turns, M [1]: 3.08
- S_PtrN, duration of the second patrolling cycle (number of arm visits), M [1]: 4.43*^+
- S_VisN, spontaneous stereotype behavior, M [1]: 6.33
- T_GlTm, total time spent in the side arms of the maze, M [1]: 166.78*^+
- rl_Ind, asymmetry index of turns, M [1]: 0.50
- F_ChTm, latency of the first arm visit, M [2]: 10.75
- F_GlTm, length of the first arm visit, M [2]: 20.27
- T_ChTm, total time spent in the central compartment of the maze, M [2]: 33.10
- F_PtrN, duration of the first patroling cycle (number of arm visits), M [3]: 5.42
- L_TrnN, number of left turns, M [3]: 3.83
- PatrlN, number of patrolling cycles, M [3]: 2.08
- R_TrnN, number of right turns, M [3]: 5.08*
- S_PtrN, duration of the second patrolling cycle (number of arm visits), M [3]: 5.00^+
- S_VisN, spontaneous stereotype behavior, M [3]: 4.17*
- T_GlTm, total time spent in the side arms of the maze, M [3]: 238.16*^+
- rl_Ind, asymmetry index of turns, M [3]: 0.58
- F_ChTm, latency of the first arm visit, M [4]: 8.33
- F_GlTm, length of the first arm visit, M [4]: 33.62*
- T_ChTm, total time spent in the central compartment of the maze, M [4]: 42.23*
- nootropic effect (improvement in the patrolling behavior, decrease in S_PtrN) [5]: nootropic effect
- sedative effect (reduction in the speed of movement in the maze; increase in T_ChTm and T_GlTm) [5]: sedative effect
- spontaneous stereotype behavior (variable S_VisN), change (single administration, 2.5 and 5.0 mg/kg doses, listed as (−)-trans-2,8-dimethyl-2,3,4,4a,5,9b-hexahydro-1H-pyrido[4,3-b]indole): significantly decreased; also recorded: decrease
